Measurements reported in ChEMBL document CHEMBL4483862, “Open-source discovery of chemical leads for next-generation chemoprotective antimalarials” (2018).

Test system: Plasmodium berghei
Assay: Luciferase/luciferin-expressing antifolate-resistant parasites were used to infect a culture of HepG2 cells that were pre-incubated with compounds. Infected hepatocytes emit light due to the luciferase reaction. Assay results are presented as the percent inhibition of light emission compared to control. […]
Format: functional
Conditions: sporozoite; for IC90: read-out: LUCIFERASE INFECTION ASSAY - IC90

SMILES	IC90	further results
COc1ccc(Nc2nnc(SCc3cn4c(C)cccc4n3)s2)cc1	3.76 µM	IC50 (HEPG2TOX_HILL_SLOPE 1.62, HEPG2TOX_R_SQUARED 0.963, PBLUC_HILL_SLOPE 37.7, PBLUC_R_SQUARED 0.0792, read-out: LUCIFERASE INFECTION ASSAY - IC50): 3.55 µM
O=c1c2ccccc2cnn1-c1nc2ccccc2[nH]1	> 10 µM	IC50 (HEPG2TOX_HILL_SLOPE 1.61, HEPG2TOX_R_SQUARED 0.823, PBLUC_HILL_SLOPE 0.454, PBLUC_R_SQUARED 0.451, read-out: LUCIFERASE INFECTION ASSAY - IC50): 4.95 µM
CC(C)c1ccc(NC(=O)c2csc(Cc3c(Cl)cccc3Cl)n2)cc1	8.08 µM	IC50 (HEPG2TOX_HILL_SLOPE 1.62, HEPG2TOX_R_SQUARED 0.849, PBLUC_HILL_SLOPE 1.9, PBLUC_R_SQUARED 0.639, read-out: LUCIFERASE INFECTION ASSAY - IC50): 2.55 µM
CC(C)(C)c1cc(C(=O)/C(C#N)=N/Nc2cccc(Cl)c2)no1	9.64 µM	IC50 (HEPG2TOX_HILL_SLOPE 1.6, HEPG2TOX_R_SQUARED 0.978, PBLUC_HILL_SLOPE 25.6, PBLUC_R_SQUARED 0.306, read-out: LUCIFERASE INFECTION ASSAY - IC50): 8.85 µM
OC1CCC(Nc2ccc3ncc(Br)n3n2)CC1 (configuration not stated)	> 10.6 µM	IC50 (HEPG2TOX_HILL_SLOPE 1.63, HEPG2TOX_R_SQUARED 0.931, read-out: LUCIFERASE INFECTION ASSAY - IC50): > 10.6 µM
CC(C)(C)c1ccc(OS(=O)(=O)c2ccc(-c3csnn3)s2)cc1	> 8.67 µM	IC50 (HEPG2TOX_HILL_SLOPE 1.63, HEPG2TOX_R_SQUARED 0.666, PBLUC_HILL_SLOPE 2.62, PBLUC_R_SQUARED 0.635, read-out: LUCIFERASE INFECTION ASSAY - IC50): 5.74 µM
CC(C)n1ncc2cc(C(=O)Nc3nc(-c4cccnc4)cs3)cnc21	> 10 µM	IC50 (HEPG2TOX_HILL_SLOPE 1.63, HEPG2TOX_R_SQUARED 0.918, read-out: LUCIFERASE INFECTION ASSAY - IC50): > 10 µM
Cc1cc(C(=O)C[n+]2ccc(N(C)C)cc2)c(C)n1Cc1ccccc1	4.24 µM	IC50 (HEPG2TOX_HILL_SLOPE 1.63, HEPG2TOX_R_SQUARED 0.735, PBLUC_HILL_SLOPE 13.8, 4.61, PBLUC_R_SQUARED 0.572, 0.235, read-out: LUCIFERASE INFECTION ASSAY - IC50): 3.09 µM
CC(=O)Nc1ccccc1OS(=O)(=O)c1ccc(N2CCCC2=O)cc1	1.38 µM	IC50 (HEPG2TOX_HILL_SLOPE 1.61, HEPG2TOX_R_SQUARED 0.866, PBLUC_HILL_SLOPE 5.07, PBLUC_R_SQUARED 0.799, read-out: LUCIFERASE INFECTION ASSAY - IC50): 0.894 µM
Cn1c(-c2cc3c(s2)CCC(C(C)(C)C)C3)n[nH]c1=S (configuration not stated)	7.62 µM	IC50 (HEPG2TOX_HILL_SLOPE 1.61, HEPG2TOX_R_SQUARED 0.989, PBLUC_HILL_SLOPE 2.28, PBLUC_R_SQUARED 0.71, read-out: LUCIFERASE INFECTION ASSAY - IC50): 2.9 µM
Clc1ccccc1-c1nc2ccnc(NCc3ccccc3)c2[nH]1	4.04 µM	IC50 (HEPG2TOX_HILL_SLOPE 1.64, HEPG2TOX_R_SQUARED 0.835, PBLUC_HILL_SLOPE 9.56, PBLUC_R_SQUARED 0.749, read-out: LUCIFERASE INFECTION ASSAY - IC50): 3.21 µM
OC(/C(=N/Nc1ncnc2ccccc12)c1ccccc1)c1ccccc1 (configuration not stated)	6.04 µM	IC50 (HEPG2TOX_HILL_SLOPE 1.63, HEPG2TOX_R_SQUARED 0.814, PBLUC_HILL_SLOPE 71.4, PBLUC_R_SQUARED 0.509, read-out: LUCIFERASE INFECTION ASSAY - IC50): 5.86 µM
O=C(NCCO)c1cccc(-c2ccc3ncc(-c4ccc5c(c4)OCO5)n3n2)c1	3.86 µM	IC50 (HEPG2TOX_HILL_SLOPE 1.62, HEPG2TOX_R_SQUARED 0.792, PBLUC_HILL_SLOPE 12.2, PBLUC_R_SQUARED 0.362, read-out: LUCIFERASE INFECTION ASSAY - IC50): 3.22 µM
CN(C)CCNC(=O)c1ccc(-c2cn3c(-c4ccc5ncccc5c4)cnc3cn2)cc1	> 7.56 µM	IC50 (HEPG2TOX_HILL_SLOPE 1.62, HEPG2TOX_R_SQUARED 0.706, PBLUC_HILL_SLOPE 13, PBLUC_R_SQUARED 0.311, read-out: LUCIFERASE INFECTION ASSAY - IC50): 6.52 µM
O=[N+]([O-])c1ccc(C(O)CNc2ccccc2S(=O)(=O)C(F)(F)F)cc1 (configuration not stated)	1.21 µM	IC50 (HEPG2TOX_HILL_SLOPE 1.62, HEPG2TOX_R_SQUARED 0.763, PBLUC_HILL_SLOPE 5.41, PBLUC_R_SQUARED 0.533, read-out: LUCIFERASE INFECTION ASSAY - IC50): 0.807 µM
O=C(c1[nH]c2ccccc2c1-c1ccccc1)N1CCOCC1	8.74 µM	IC50 (HEPG2TOX_HILL_SLOPE 1.63, HEPG2TOX_R_SQUARED 0.942, PBLUC_HILL_SLOPE 2.32, PBLUC_R_SQUARED 0.78, read-out: LUCIFERASE INFECTION ASSAY - IC50): 3.39 µM

SMILES	IC90	further results
CCc1ccc(-c2nnc(SC(C)C(=O)NC3CCCCC3)[nH]2)cc1 (configuration not stated)	> 10 µM	IC50 (HEPG2TOX_HILL_SLOPE 1.62, HEPG2TOX_R_SQUARED 0.795, read-out: LUCIFERASE INFECTION ASSAY - IC50): > 10 µM
Cc1c(-c2ccccc2)sc2[nH]c(CC(N)=O)nc(=O)c12	1.59 µM	IC50 (HEPG2TOX_HILL_SLOPE 1.61, HEPG2TOX_R_SQUARED 0.893, PBLUC_HILL_SLOPE 16.8, PBLUC_R_SQUARED 0.567, read-out: LUCIFERASE INFECTION ASSAY - IC50): 1.39 µM
O=C(CN1CC=C(c2ccccc2)CC1)Nc1ccnn1C1CCCC1	> 10 µM	IC50 (HEPG2TOX_HILL_SLOPE 1.62, HEPG2TOX_R_SQUARED 0.847, PBLUC_HILL_SLOPE 1.87, PBLUC_R_SQUARED 0.673, read-out: LUCIFERASE INFECTION ASSAY - IC50): 5.98 µM
COc1cccc(-c2nc3ccnc(NCc4ccccc4)c3[nH]2)c1	7.99 µM	IC50 (HEPG2TOX_HILL_SLOPE 1.62, HEPG2TOX_R_SQUARED 0.805, PBLUC_HILL_SLOPE 1.55, PBLUC_R_SQUARED 0.567, read-out: LUCIFERASE INFECTION ASSAY - IC50): 1.93 µM
CNc1ccc2ncc(-c3ccc(OC)nc3)n2n1	12.8 µM	IC50 (HEPG2TOX_HILL_SLOPE 1.61, HEPG2TOX_R_SQUARED 0.963, PBLUC_HILL_SLOPE 2.26, PBLUC_R_SQUARED 0.378, read-out: LUCIFERASE INFECTION ASSAY - IC50): 4.85 µM
Cc1cc(C(=O)Nc2nc3cc(C(F)(F)F)ccc3n2Cc2ccco2)c2c(C)noc2n1	3.24 µM	IC50 (HEPG2TOX_HILL_SLOPE 1.6, HEPG2TOX_R_SQUARED 0.983, PBLUC_HILL_SLOPE 3.8, PBLUC_R_SQUARED 0.87, read-out: LUCIFERASE INFECTION ASSAY - IC50): 1.82 µM
CCN1C(=Cc2cc(C)[n+](CCCN3CCOCC3)c(C)c2)Sc2ccccc21	5.67 µM	IC50 (HEPG2TOX_HILL_SLOPE 1.6, HEPG2TOX_R_SQUARED 0.978, PBLUC_HILL_SLOPE 2.92, PBLUC_R_SQUARED 0.557, read-out: LUCIFERASE INFECTION ASSAY - IC50): 2.67 µM
Cc1cc(-c2cn3c(-c4ccc(CO)cc4)cnc3cn2)cc(C)c1O	4.31 µM	IC50 (HEPG2TOX_HILL_SLOPE 1.62, HEPG2TOX_R_SQUARED 0.965, PBLUC_HILL_SLOPE 8.31, PBLUC_R_SQUARED 0.637, read-out: LUCIFERASE INFECTION ASSAY - IC50): 3.31 µM
COC(=O)C1=C(C)N(c2cccc(C(F)(F)F)c2)C(=S)NC1c1ccc(O)c(OC)c1 (configuration not stated)	1.57 µM	IC50 (HEPG2TOX_HILL_SLOPE 1.61, 1.73, HEPG2TOX_R_SQUARED 0.946, 0.571, PBLUC_HILL_SLOPE 8.66, 0.516, PBLUC_R_SQUARED 0.631, 0.614, read-out: LUCIFERASE INFECTION ASSAY - IC50): 0.906 µM
N#Cc1ccnc(N2CCN(C(=O)c3cccc(-n4cccc4)c3)CC2)c1	2.2 µM	IC50 (HEPG2TOX_HILL_SLOPE 1.62, HEPG2TOX_R_SQUARED 0.96, PBLUC_HILL_SLOPE 2.46, PBLUC_R_SQUARED 0.842, read-out: LUCIFERASE INFECTION ASSAY - IC50): 0.901 µM
Cc1ccc2nc(NC(=O)c3ccc(F)cc3F)c(C(=O)NC3CCCC3)n2c1	2.97 µM	IC50 (HEPG2TOX_HILL_SLOPE 1.63, HEPG2TOX_R_SQUARED 0.945, PBLUC_HILL_SLOPE 15.6, PBLUC_R_SQUARED 0.398, read-out: LUCIFERASE INFECTION ASSAY - IC50): 2.58 µM
CCc1c(C)sc2nc(SCC(=O)c3cc(C)n(-c4ccc5c(c4)OCO5)c3C)n(CC)c(=O)c12	> 10 µM	IC50 (HEPG2TOX_HILL_SLOPE 1.63, HEPG2TOX_R_SQUARED 0.963, PBLUC_HILL_SLOPE 1.91, PBLUC_R_SQUARED 0.412, read-out: LUCIFERASE INFECTION ASSAY - IC50): 3.47 µM
Oc1cccc(-c2cnc3cnc(-c4ccc(Cl)cc4Cl)cn23)c1	2.14 µM	IC50 (HEPG2TOX_HILL_SLOPE 1.62, HEPG2TOX_R_SQUARED 0.949, PBLUC_HILL_SLOPE 1.81, PBLUC_R_SQUARED 0.693, read-out: LUCIFERASE INFECTION ASSAY - IC50): 0.634 µM
O=C1/C(=N\O)c2ccccc2N1Cc1cc(C(F)(F)F)cc(C(F)(F)F)c1	2.62 µM	IC50 (HEPG2TOX_HILL_SLOPE 1.63, HEPG2TOX_R_SQUARED 0.96, PBLUC_HILL_SLOPE 1.81, PBLUC_R_SQUARED 0.672, read-out: LUCIFERASE INFECTION ASSAY - IC50): 0.78 µM
NS(=O)(=O)c1ccc(CNc2ccc3ncc(-c4ccc(Cl)cc4)n3n2)cc1	1.19 µM	IC50 (HEPG2TOX_HILL_SLOPE 1.64, HEPG2TOX_R_SQUARED 0.894, PBLUC_HILL_SLOPE 9.33, PBLUC_R_SQUARED 0.776, read-out: LUCIFERASE INFECTION ASSAY - IC50): 0.942 µM
